The record followed here is patent US6545038B1, “Heterocyclic metalloprotease inhibitors” (The Procter & Gamble Company, priority 1996, dated 2003).

SMILES strings stand for the structures.

The test in a line: Method of use Example B: daily capsule in a subject suffering from osteoarthritis. Type of test: in vivo. The note with it: human male, capsule containing 70 mg daily for 5 years. As for the experimental part: A human subject weighing 90 kg (198 lbs), suffering from osteoarthritis, is treated by a method of this invention. Specifically, for 5 years, a capsule containing 70 mg of Example 3 is administered daily to said subject.

Regarding `COc1ccc(S(=O)(=O)N2CCCSC(C)(C)[C@@H]2C(=O)N(C)O)cc1` [Example 3, 3(S)-N-Hydroxy-N-methyl-2,2-dimethyl-4N-[(4-methoxyphenyl)sulfonyl]-thiazepine-3-carboxamide], the “erosion/fibrillation of the articular cartilage, examined via orthoscopy” value was “no further advancement of erosion/fibrillation of the articular cartilage”.
